The target in experiment [1] is T1, DUSP1 enzyme (activation domain, amino acid residues 166-316) (Homo sapiens, UniProt P28562).
T1 construct: made in house; host or cells: E. coli BL21
T1 sequence (P28562 166-316): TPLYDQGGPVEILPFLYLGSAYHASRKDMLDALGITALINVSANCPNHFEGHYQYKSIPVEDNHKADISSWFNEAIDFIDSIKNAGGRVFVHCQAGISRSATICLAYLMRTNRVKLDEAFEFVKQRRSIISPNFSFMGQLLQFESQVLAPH
Put plainly: DUSP1 activity inhibitory potency, fluorescence enzyme assay with DiFMUP substrate. It counts as biochemical. The conditions noted are these: 50 nM DUSP1 activation domain, 10 μM DiFMUP, 5% DMSO. Here is the method: The inhibitory potency of the DUSP1 activity on 8 kinds of the compounds screened in Example 1 was measured.
As the assay buffer, 20 mM Tris-HCl (pH 8.0), 0.01% Triton X-100 and 5 mM DTT were used, and a fluorescent substrate of 6,8-difluoro-4-methylumbelliferyl phosphate (DiFMUP) 10 μM was used as the substrate. The DUSP1 enzyme was expressed and purified from the activation domain (amino acid residues 166-316) and was used at 50 nM concentration in the enzyme reaction.
The expression and purification of the activation domain was carried out in the following manner. The DUSP1 activation domain (amino acid residues 166-316) was cloned into the pET28a (Novagen) vector and expressed in E. coli BL21 strain. The E. coli transformed with the expression vector of the DUSP1 activation domain was promoted with 0.1 mM of IPTG (isopropyl β-D-1-thiogalactopyranoside) at 37° C. The E. coli expressed with the DUSP1 activation domain was purified using a nickel affinity column after being crushed with a sonicator. The purified protein was quantified by the Bradford assay and used for the enzyme reaction.
The fluorescence generated by the enzymatic action was measured using a Victor spectrofluorometer (PerkinElmer) with an excitation/emission wavelength of 355 nm/460 nm. From the obtained results, the intermediate suppression value (IC50) was determined according to a 4-parameter logistic method of the Sigmaplot program package (Systat software Inc.), and the measurement results of the DUSP1 enzyme activity inhibitory potency were shown in Table 2 below.

Another experiment has as its system PC12 neuron. Put plainly: Neurite outgrowth assay with NGF. The format is cell-based. The conditions noted are these: PC12, phase contrast microscope, 72 hours. Here is the method:
The Neurite outgrowth assay was carried out with PC12 neuron by appropriately modifying the protocol described in Ishima et al., (2015) Potentiation of neurite outgrowth by brexpiprazole, a novel serotonin-dopamine activity modulator: A role for serotonin 5-HT1A and 5-HT2A receptors. Eur. Neuropsychopharm. 25, 505-511.
The PC12 neurite cells were distributed by the Korea Cell Line Bank (Seoul National University in Korea) and prepared in a 96-well plate at a density of 7,000 cells/well. The cell culture was performed in Dulbeco's Modified Eagle's Media (DMEM), 10% FBS and 1% Anti-anti (Gibco).

Experiment [2] deals with human liver cancer cell line Hep3B. Briefly: MTT analysis of liver cancer cell growth inhibition. The format is cell-based. The conditions noted are these: 96 hours, unit assumed. Here is the method:
(§1) The MTT analysis was performed to confirm the potency of inhibiting the growth of liver cancer cells of the DUSP1 inhibitor compound of the present invention.
(§2) A human liver cancer cell line Hep3B was cultured in DMEM, 10% FBS, 1% Anti-anti (Gibco) and prepared in a 96-well plate at a density of 7,000 cells/well. A normal hepatocyte line BNL-CL2 cell was cultured in DMEM, 10% FBS, 1% Anti-anti (Gibco) and prepared in a 96-well plate at a density of 3,000 cells/well.
(§3) After incubating at 37° C. for 15 hours, Compounds 6 to 8 were treated at the time of medium exchange so that final concentrations of the compounds in the medium become 2.5 μM and 5.0 μM, respectively, and the treatment conditions were adjusted so that the final DMSO concentration in the medium after treatment of the compounds can be maintained to 0.5%.
(§4) After 96 hours, a cell growth rate was measured using the Roche Cell […] Assay I (MTT) Kit. 10 μL of the MTT solution was added to each of 100 μL wells to a final concentration of 0.5 mg/ml, and then incubated at 37° C. for 4 hours and 100 μL of the solubilization buffer provided in the Kit was added.

The test system of experiment [3] is normal hepatocyte line BNL-CL2. Put plainly: MTT analysis on normal hepatocyte line. The format is cell-based. The conditions noted are these: 96 hours; for cell growth rate (MTT), BNL-CL2 cell line, compound concentration 5.0 μM: BNL-CL2, 5.0 μM, unit assumed. Here is the method: as §1, §2, §3, §4
Experiment [4] relates to human liver cancer cell line Hep3B xenograft. Briefly: Xenograft assay for tumor suppression. It counts as in vivo. The note with it: Hep3B xenograft in nude mouse, two intratumoral doses 4 days apart, measured 4 days after second dose; FIG. 4. Here is the method: Using a xenograft assay method, it was confirmed whether the DUSP1 inhibitor of the present invention has the potency of inhibiting the cell growth of a liver cancer.
A human liver cancer cell line Hep3B of 1×10^7 was injected into the subcutaneous layer of the back of a nude mouse in DMEM medium, and then when the cell line was 200 to 500 mm^3 in size, it was extracted and inserted into the subcutaneous layer of the back of a new nude mouse in the size of 5×5×5 mm.
The primary and secondary compounds 7 were administered intratumorally at concentrations of 3 μg and 6 μg, respectively, and the primary and secondary compounds 8 were administered intratumorally at concentrations of 2 μg and 4 μg, respectively.

In experiment [5] the target is T1, DUSP1 enzyme (activation domain, amino acid residues 166-316). The conditions noted are these: comparison value quoted in text; read-out: IC50 value of known selective DUSP1 inhibitor; cited from earlier work.

Here are results for eight compounds from patent US11147807B2, “Pharmaceutical composition containing DUSP1 inhibitor” (INDUSTRY-UNIVERSITY COOPERATION FOUNDATION HANYANG …, priority 2017, dated 2021).

What is called IC50 is the concentration at which inhibition is half-maximal.

Like-named read-outs stand apart in the source and are kept apart here.

The compound `CC(C)C(=O)c1c(Nc2cc(Cl)cc(Cl)c2)[nH]c2c(Cl)ccc([N+](=O)[O-])c2c1=O` [Compound 1] displayed an IC50 in experiment [1] of 5.1 µM.
Still for that read-out and setting: the result for `CC(=O)c1c(Nc2ccc(Cl)cc2Cl)[nH]c2c(Cl)ccc(F)c2c1=O` [Compound 3] reads 7.5 µM.
The same measure, in the same setting: next, `CC(=O)c1c(Nc2ccc(Br)cc2Br)[nH]c2c(Cl)ccc(F)c2c1=O` [Compound 4]: 6.1 µM; `O=C(c1c(Nc2cc(Cl)cc(Cl)c2)[nH]c2c(Cl)ccc([N+](=O)[O-])c2c1=O)C1CC1` [Compound 5]: 4.1 µM.
In the case of `CC(=O)c1c(Nc2cc(C(F)(F)F)cc(C(F)(F)F)c2)[nH]c2c(Cl)ccc(F)c2c1=O` [Compound 6], in experiment [1], half-maximal inhibition (IC50) was put at 4.2 µM. Besides, in the experiment on PC12 neuron, the “induction of neurite outgrowth” value was “shape of neurites stretching from the cell can be confirmed”. Further, the cell growth rate (MTT), HEP3B cell line, compound concentration 5.0 μM in experiment [2] was 14%. In addition, in experiment [3], the cell growth rate (MTT), BNL-CL2 cell line, compound concentration 5.0 μM amounted to 8% and the “cell growth rate (MTT), BNL-CL2 cell line, compound concentration […]” value (shortened to “cell growth rate (MTT), BNL-CL2 cell line … […]”) was determined as 111.
As to `CC(C)CC(=O)c1c(Nc2cc(Cl)cc(Cl)c2)[nH]c2c(Cl)ccc([N+](=O)[O-])c2c1=O` [Compound 7], the IC50 in experiment [1] was found to be 3.5 µM. The “cell growth rate (MTT), BNL-CL2 cell line … […]” value in experiment [3] amounted to 156. Further, in experiment [4], the tumor size reduction entry is “about 70%”.
`CC(C)CC(=O)c1c(Nc2cccc(Cl)c2Cl)[nH]c2c(Cl)ccc([N+](=O)[O-])c2c1=O` [Compound 8]: the IC50 in experiment [1] was determined as 4.8 µM. The same compound gave a cell growth rate (MTT), HEP3B cell line, compound concentration 5.0 μM in experiment [2] of 16%. In addition, in experiment [3], the cell growth rate (MTT), BNL-CL2 cell line, compound concentration 5.0 μM was 54% and the “cell growth rate (MTT), BNL-CL2 cell line … […]” value amounted to 139. Moreover, the tumor size reduction entry in experiment [4] is “about 85%”.
Turning to `C[n+]1cc2c3c(ccc2c2ccc4cc5c(cc4c21)OCO5)OCO3` [Sanguinarin], the 50% inhibitory concentration (IC50) in experiment [5] was 10 µM.
